US20090005424A9, “Composition and Method for Treating Fibrotic Diseases” (priority 2005, published 2009)
Like-named read-outs stand apart in the source and are kept apart here.

Columns and labels:
Kun Ming (KM) mice [1] = conditions: cited from earlier work
Kun Ming (KM) mice [2] = assay: Acute oral toxicity in Kun Ming mice, LD50 by Bliss method; conditions: mouse, in vivo
Description: Male and female Kun Ming (KM) mice weighing between 18 g-22 g were acquired from the animal facility of Hsiang-Ya Medical College, the Central South University. Fifty Kun Ming mice were randomly assigned into 5 groups with 5 male and 5 female mice for each group. The animals went through fasting with a normal water supply before starting drug treatment (either AKF-PD or PIRFENIDONE). The drug was administrated orally by gavage. The volume of liquid drug was 20 ml/kg body weight. The range of dosage for AKF-PD administrated was from 1071 mg/kg to 6000 mg/kg. The dosage difference between two adjacent doses was 1:0.65 (a dose vs the next lower dose). All animals were maintained under a regular condition. Acute toxic reaction and death within 14 days of post drug treatment were recorded. Autopsy was performed on all dead animals and visual examination was performed on all organs.
LD50 was calculated according to Bliss method. […] The results of Table 15 are very close to those reported in the literature: 997.7 mg/kg (U.S. Pat. No. 5,310,562) and 1112 mg/kg(Pharmaceutical Care and Research 5:4823(2005)).

[3] = tested on: TGF-β production and type I & III collagen accumulation in rat UUO model; assay: Rat UUO model, immunohistochemistry of TGF-β and type I & III collagen; assay type: in vivo; conditions: kidney of UUO rats
Description: Similar to the example 8, Kidney fibrosis was induced by Unilateral Ureteral Obstruction. And the animal experiments were performed to investigate whether AKF-PD has any effect on TGF-β production and collagen accumulation. These are two known factors for fibrotic lesion.
As shown by FIG. 1, sections A-C were immunohistochemically stained with specific antibody against TGF-β with brown color indicating TGF-β protein expression in kidney cells. All sections were also counterstained lightly with hematoxylin for viewing non-TGF-β stained cells.
Also shown by FIG. 2, type I and III collagen were analyzed by immunohistochemistry. The typical fibrotic fiber was viewed as brown color. There are a […] accumulation of both type I (B) and type III (E) collagen on the fibrotic kidney of UUO model. […] Reduced collagen level can be interpreted as the reduced ECM.

[4] = tested on: Kun Ming (KM) mice infected with Schistosoma miracidium; assay: Schistosomial liver fibrosis in Kun Ming mice, egg granuloma area and immunohistology; assay type: in vivo; conditions: for Schistosomo Egg Granuloma Area, Mean: all after Pyquiton 650 mg/kg 4 days, AKF-PD 500 mg/kg daily gavage, γ-interferon 50,000 unit daily i.m., 8 weeks
Text: Kun Ming (KM) mice were infected with Schistosoma miracidium to induce schistosomial liver fibrosis. […] Ten Schistosoma miracidium were placed on shaved abdominal skin of each mouse for infection. […] Five hundred mg/kg AKF-PD were given daily by gavage to the disinfected mice of infected/AKF-PD group. The disinfected mice were given (i.m.) 50,000 unit γ-interferon daily. […] Drug or normal saline treatment was continued for 8 weeks. All mice were sacrificed one week after discontinue of drug treatment, and the left lobe of liver from each mouse was taken for pathological examination. Examination of HE-stained slices of liver tissue were carried out as follows. In general, after 16 weeks of Schistosoma miracidia infection, the area of schistosomo egg granuloma would directly correlate to the severity of liver fibrosis. Therefore, the area of schistosomo egg granuloma was measured using a high-resolution, color pathology graphic analyzer (HPIAS-1000). The sum of area of 5 granuloma with abundant eggs and the sum of area of 5 granuloma with few eggs were measured for each slice.

[5] = compared with pyquiton and Interferon-γ treated

| Structure (SMILES) | LD50 reported in the literature (Kun Ming (KM) mice [1]; Pharmaceutical Care and Research 5:4823(2005)) | LD50 reported in the literature (Kun Ming (KM) mice [1]; U.S. Pat. No. 5,310,562) | LD50 as percent of that of PIRFENIDONE (Kun Ming (KM) mice [2]; both, Kun Ming (KM), 14 days) | LD50 95% confidence limit (Kun Ming (KM) mice [2]; both, Kun Ming (KM), po, 14 days) | toxicity relative to that of PIRFENIDONE (Kun Ming (KM) mice [2]) | TGF-β production (immunohistochemistry, FIG. 1) [3] | type I and III collagen accumulation or production (immunohistochemistry, FIG. 2) [3] | fibrotic nodule (immunohistological staining, FIG. 3) [4, 5] | type I collagen accumulation (immunohistological staining, FIG. 4) [4, 5] | Schistosomo Egg Granuloma Area, Mean ([4]; granuloma with abundant eggs) | Schistosomo Egg Granuloma Area, Mean ([4]; granuloma with few eggs) |
| --- | --- | --- | --- | --- | --- | --- | --- | --- | --- | --- | --- |
| Cc1ccc(=O)n(-c2ccccc2)c1 [PFD, 5-methyl-1-phenyl-2(1H)-pyridone, reference compound] | 1112 mg/kg | 997.7 mg/kg | – | – | – | – | – | – | – | – | – |
| Cc1ccc(=O)n(-c2cccc(F)c2)c1 [AKF-PD, 1-(3′-fluorophenyl)-5-methyl-2(1H)-pyridone] | – | – | 30% | (2402.70 − 3695.73) mg/kg | one third | significantly reduced TGF-β production | significantly blocks type I and III collagen accumulation or production | much reduced fibrotic nodule | much less type I collagen accumulation | 80155.11 μm^2 | 30266.68 μm^2 |
